Molecular target: cathepsin B (Homo sapiens, UniProt P07858)
Assay: Time-dependent fluorescence emission of ICG systems with or without cathepsin B
Assay type: biochemical
Conditions: after 24 h at 37° C. in PBS
Procedure: The equivalent ICG concentration in all systems was 6 μg/mL. Fluorescence emission spectra of these systems were acquired over the course of 48 h. The excitation wavelength of 740 nm was used to obtain the fluorescence spectra. For the afore-mentioned experiments, spectra and fluorescence intensities were obtained using a CLARIOstar® High Performance Monochromator Multimode microplate reader (BMG LABTECH, UK).

CC1(C)C(/C=C/C=C/C=C/C=C2\N(CCCCS(=O)(=O)O)c3ccc4ccccc4c3C2(C)C)=[N+](CCCCS(=O)(=O)[O-])c2ccc3ccccc3c21 [free ICG, Indocyanine green]
fluorescence emission of free ICG: suppressed

Reference: patent US11040101B2, “Nanoparticles for cancer therapy and diagnosis” (UCL BUSINESS PLC, priority 2019, dated 2021)
